Details: Gas, isochoric method

FCC(F)(F)F [1,1,1,2-tetrafluoroethane]
Details	molar volume [m3/mol]
253.09 K, 107.6 kPa	0.01875
272.92 K, 158.9 kPa	0.01358
282.69 K, 329.1 kPa	0.006516
282.8 K, 121.4 kPa	0.01878
292.87 K, 171.9 kPa	0.0136
292.89 K, 126.2 kPa	0.01878
302.58 K, 357.7 kPa	0.006522
313.1 K, 135.4 kPa	0.0188
313.1 K, 184.9 kPa	0.01361
323.07 K, 386.5 kPa	0.006528
333.03 K, 144.3 kPa	0.01882
333.03 K, 1610.8 kPa	0.001248
333.05 K, 197.5 kPa	0.01362
342.96 K, 413.7 kPa	0.006533
343 K, 1706.9 kPa	0.001248
352.93 K, 153.2 kPa	0.01883
352.94 K, 1798.6 kPa	0.001249
353.04 K, 210 kPa	0.01363
362.89 K, 440.7 kPa	0.006539
362.9 K, 1888.6 kPa	0.001249
372.82 K, 454 kPa	0.006542
372.84 K, 162.1 kPa	0.01885
372.87 K, 1976.6 kPa	0.00125
372.99 K, 222.4 kPa	0.01364

Reference: the NIST ThermoML archive (doi:10.1021/je100102q)
